What was measured:
Assay in all cases: relative viability (nuclei count vs DMSO), 5 days (fraction); higher = more cells survive
HOP-62 = system: HOP-62
In short: (§1)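 One day after seeding in 1536-well plates, lung cancer cell lines were dosed by pin tool. Dosing was either single-drug or a fixed anchor-drug dose plus five library-drug doses (not always all listed) in √10 steps. After 5 days, nuclei were stained in one fix-and-stain step and counted on 4× images, and relative viability is the nuclei count of treated wells over that of vehicle wells, given as the median of duplicate plates.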

NCI-H2009 = system: NCI-H2009
In short: as §1

NCI-H3122 = system: NCI-H3122
In short: as §1

NCI-H2228 = system: NCI-H2228
In short: as §1

SW 1573 = system: SW 1573
In short: as §1

SK-MES-1 = system: SK-MES-1
In short: as §1

NCI-H2085 = system: NCI-H2085
In short: as §1

NCI-H2347 = system: NCI-H2347
In short: as §1

NCI-H596 = system: NCI-H596
In short: as §1

NCI-H1734 = system: NCI-H1734
In short: as §1

LK-2 = system: LK-2
In short: as §1

RERF-LC-KJ = system: RERF-LC-KJ
In short: as §1

HCC-366 = system: HCC-366
In short: as §1

LC-2-ad = system: LC-2-ad
In short: as §1

PC-14 = system: PC-14
In short: as §1

CAL-12T = system: CAL-12T
In short: as §1

SW 900 = system: SW 900
In short: as §1

HCC-78 = system: HCC-78
In short: as §1

NCI-H1993 = system: NCI-H1993
In short: as §1

NCI-H2405 = system: NCI-H2405
In short: as §1

NCI-H1355 = system: NCI-H1355
In short: as §1

ChaGo-K-1 = system: ChaGo-K-1
In short: as §1

EMC-BAC-2 = system: EMC-BAC-2
In short: as §1

CCCCCCCCCCCC1=C(O)C(=O)C=C(O)C1=O [Embelin] + CC(=O)Nc1cccc(-n2c(=O)n(C3CC3)c(=O)c3c(Nc4ccc(I)cc4F)n(C)c(=O)c(C)c32)c1 [Trametinib] (partner 0.02 µM)
relative viability (HOP-62; first compound 0.08 µM): 0.402
relative viability (HOP-62; first compound 0.8 µM): 0.472
relative viability (HOP-62; first compound 2.53 µM): 0.476
relative viability (HOP-62; first compound 8 µM): 0.379
relative viability (NCI-H2009; first compound 0.08 µM): 0.335
relative viability (NCI-H2009; first compound 0.8 µM): 0.306
relative viability (NCI-H2009; first compound 2.53 µM): 0.268
relative viability (NCI-H2009; first compound 8 µM): 0.296
relative viability (NCI-H3122; first compound 0.08 µM): 0.251
relative viability (NCI-H3122; first compound 0.8 µM): 0.253
relative viability (NCI-H3122; first compound 2.53 µM): 0.238
relative viability (NCI-H3122; first compound 8 µM): 0.263
relative viability (NCI-H2228; first compound 0.08 µM): 0.491
relative viability (NCI-H2228; first compound 0.8 µM): 0.523
relative viability (NCI-H2228; first compound 2.53 µM): 0.609
relative viability (NCI-H2228; first compound 8 µM): 0.455
relative viability (SW 1573; first compound 0.08 µM): 0.604
relative viability (SW 1573; first compound 0.8 µM): 0.636
relative viability (SW 1573; first compound 2.53 µM): 0.625
relative viability (SW 1573; first compound 8 µM): 0.603
relative viability (SK-MES-1; first compound 0.08 µM): 0.599
relative viability (SK-MES-1; first compound 0.8 µM): 0.588
relative viability (SK-MES-1; first compound 2.53 µM): 0.591
relative viability (SK-MES-1; first compound 8 µM): 0.518
relative viability (NCI-H2085; first compound 0.08 µM): 0.663
relative viability (NCI-H2085; first compound 0.8 µM): 0.579
relative viability (NCI-H2085; first compound 2.53 µM): 0.532
relative viability (NCI-H2085; first compound 8 µM): 0.448
relative viability (NCI-H2347; first compound 0.08 µM): 0.307
relative viability (NCI-H2347; first compound 0.8 µM): 0.272
relative viability (NCI-H2347; first compound 2.53 µM): 0.255
relative viability (NCI-H2347; first compound 8 µM): 0.316
relative viability (NCI-H596; first compound 0.08 µM): 0.832
relative viability (NCI-H596; first compound 0.8 µM): 0.796
relative viability (NCI-H596; first compound 2.53 µM): 0.795
relative viability (NCI-H596; first compound 8 µM): 0.748
relative viability (NCI-H1734; first compound 0.08 µM): 0.686
relative viability (NCI-H1734; first compound 0.8 µM): 0.789
relative viability (NCI-H1734; first compound 2.53 µM): 0.777
relative viability (NCI-H1734; first compound 8 µM): 0.689
relative viability (LK-2; first compound 0.08 µM): 0.793
relative viability (LK-2; first compound 0.8 µM): 1.02
relative viability (LK-2; first compound 2.53 µM): 0.945
relative viability (LK-2; first compound 8 µM): 0.954
relative viability (RERF-LC-KJ; first compound 0.08 µM): 0.871
relative viability (RERF-LC-KJ; first compound 0.8 µM): 0.977
relative viability (RERF-LC-KJ; first compound 2.53 µM): 0.896
relative viability (RERF-LC-KJ; first compound 8 µM): 0.853
relative viability (HCC-366; first compound 0.08 µM): 0.385
relative viability (HCC-366; first compound 0.8 µM): 0.431
relative viability (HCC-366; first compound 2.53 µM): 0.446
relative viability (HCC-366; first compound 8 µM): 0.326
relative viability (LC-2-ad; first compound 0.08 µM): 0.891
relative viability (LC-2-ad; first compound 0.8 µM): 0.98
relative viability (LC-2-ad; first compound 2.53 µM): 0.966
relative viability (LC-2-ad; first compound 8 µM): 1.02
relative viability (PC-14; first compound 0.08 µM): 0.728
relative viability (PC-14; first compound 0.8 µM): 0.839
relative viability (PC-14; first compound 2.53 µM): 0.982
relative viability (PC-14; first compound 8 µM): 0.724
relative viability (CAL-12T; first compound 0.08 µM): 0.376
relative viability (CAL-12T; first compound 0.8 µM): 0.386
relative viability (CAL-12T; first compound 2.53 µM): 0.283
relative viability (CAL-12T; first compound 8 µM): 0.295
relative viability (SW 900; first compound 0.08 µM): 0.779
relative viability (SW 900; first compound 0.8 µM): 0.962
relative viability (SW 900; first compound 2.53 µM): 0.781
relative viability (SW 900; first compound 8 µM): 1.15
relative viability (HCC-78; first compound 0.08 µM): 0.834
relative viability (HCC-78; first compound 0.8 µM): 0.831
relative viability (HCC-78; first compound 2.53 µM): 0.752
relative viability (HCC-78; first compound 8 µM): 0.696
relative viability (NCI-H1993; first compound 0.08 µM): 0.513
relative viability (NCI-H1993; first compound 0.8 µM): 0.512
relative viability (NCI-H1993; first compound 2.53 µM): 0.584
relative viability (NCI-H1993; first compound 8 µM): 0.498
relative viability (NCI-H2405; first compound 0.08 µM): 0.664
relative viability (NCI-H2405; first compound 0.8 µM): 0.778
relative viability (NCI-H2405; first compound 2.53 µM): 0.638
relative viability (NCI-H2405; first compound 8 µM): 0.626
relative viability (NCI-H1355; first compound 0.08 µM): 0.409
relative viability (NCI-H1355; first compound 0.8 µM): 0.443
relative viability (NCI-H1355; first compound 2.53 µM): 0.392
relative viability (NCI-H1355; first compound 8 µM): 0.418
relative viability (ChaGo-K-1; first compound 0.08 µM): 0.966
relative viability (ChaGo-K-1; first compound 0.8 µM): 0.871
relative viability (ChaGo-K-1; first compound 2.53 µM): 0.963
relative viability (ChaGo-K-1; first compound 8 µM): 0.922
relative viability (EMC-BAC-2; first compound 0.08 µM): 0.845
relative viability (EMC-BAC-2; first compound 0.8 µM): 1.08
relative viability (EMC-BAC-2; first compound 2.53 µM): 0.883
relative viability (EMC-BAC-2; first compound 8 µM): 0.913

Source: the supplement of paper PMC10307832
